Patent US20090022806A1, “Nanoparticle and polymer formulations for thyroid hormone analogs, antagonists and formulations and uses thereof” (priority 2006, published 2009)
In brackets after ≈: the same amount, converted by molar mass.

Assays:
[1] = Doxorubicin-resistant tumor xenograft in nude mice; settings: CD1 nude, mouse, in vivo
Description: (§1) Strain CD1 nude mice were obtained from Charles River Laboratories (Wilmington, Mass.) at approximately 5-6 weeks of age and weighing approximately 30 g. Animals received s.c. implantation of doxorubicin-resistant MCF7/R cells (10^6 cells in 100 μl). When tumors were approximately 50 mm^3 in size, the animals were pair matched and divided into four groups of five mice as follows: a) vehicle treated controls, b) mice treated with tetrac (30 mg/kg), c) mice treated doxorubicin (2 mg/kg), d) mice treated with the combination of both drugs. A total of three injections (separated by 3 days) were performed. Mice were weighed, checked for clinical signs of drug toxicity and lethality. Tumor measurements were made with a caliper three times weekly for up to 3 weeks and converted to tumor volume by using the formula W×L^2/2. Tumor growth curves were generated.

[2] = test system: doxorubicin-resistant MCF7/R cells; assay: Doxorubicin-resistant tumor xenograft in nude mice; settings: doxorubicin alone 2 mg/kg, three injections
Description: as §1

Solubility = format: physicochemical; settings: in water after preparing a solution at 10^−1 M in DMSO
Description: Yield: 50%; off-white solid; recrist. solvt.: EtOH; TLC: Rf=0.43 (EtOAc/EtOH 9/1); RPTLC: Rf=0.43 (AcOH/H2O 8/2); mp=136° C.; IR (ν cm^−1): 1730 (CO); ^1H NMR (DMSO-d6) δ (ppm): 7.79 (s, 2H, ArH), 7.14 (s, 2H, ArH), 4.06-4.02 (m, 2H, CH2), 3.93-3.89 (q, J=7.0 Hz, 2H, CH2), 3.59-3.56 (t, J=7.0 Hz, 1H, CH), 2.80-2.77 (m, 2H, CH2), 1.88 (br, 1H, NH), 1.41-1.39 (t, J=7.0 Hz, 3H, CH3), 1.15-1.12 (t, J=7.0 Hz, 3H, CH3); MS (ESI+) m/z 911.7 [(M+DMSO)^+, 100], 833.7 [(M+H)+, 75]; Anal. Calcd. for C19H19I4NO4: C, 27.40; H, 2.30; N, 1.68. Found: C, 27.54; H, 1.94; N, 1.66. Solubility 10^−3 M in water after preparing a solution at 10^−1 M in DMSO. It is noteworthy that if a suspension of L-T4 is prepared overnight, the yield can be increased.

NG108-15 cells = assay: cells; settings: Homo sapiens, NG108-15, read-out: Half maximal inhibition of cell-cell adhesion
[3] = test system: EC migration toward the extracellular matrix protein vitronectin; assay: Cellular migration assay toward vitronectin (chemotaxis chamber); format: cell-based; settings: Vitronectin 25 ug in lower chamber alone
Description: These assays were performed using a Neuroprobe 96 well disposable chemotaxis chamber with an 8 μm pore size. This chamber allowed for quantitation of cellular migration towards a gradient of either vitronectin or osteopontin. Cultured cells were removed following a standardized method using EDTA/Trypsin (0.01%/0.025%). Following removal, the cells were washed twice and resuspended (2×10^6/ml) in EBM (Endothelial cell basal media, Clonetics Inc.). Add either vitronectin or osteopontin (33 μl) at 0.0125-100 μg/ml to the lower wells of a disposable chemotaxis chamber, and then assemble using the preframed filter. The cell suspension (45 μl) was added to a polypropylene plate containing 5 μl of test agent at different concentrations and incubated for 10 minutes at 22° C. Add 25 μl of cell/test agent suspension to the upper filter wells then incubate overnight (22 hours at 37° C.) in a humidified cell culture incubator. After the overnight incubation, non-migrated cells and excess media were gently removed using a 12 channel pipette and a cell scraper. The filters were then washed twice in PBS (no Ca^+2 or Mg^+2) and fixed with 1% formaldehyde. Membranes of migrated cells were permeated with Triton X-100 (0.2%) then washed 2-3 times with PBS. […] Chemotaxis was quantitatively determined by fluorescence detection using a Cytofluor II (530 excitation/590 emission).

COc1cccc2c1C(=O)c1c(O)c3c(c(O)c1C2=O)C[C@@](O)(C(=O)CO)C[C@@H]3O[C@H]1C[C@H](N)[C@H](O)[C@H](C)O1 [doxorubicin]
MTD [1]: 2.5 mg/kg
effect on tumor growth [2]: no noticeable effect

CC(C)(C)OC(=O)NC(Cc1cc(I)c(Oc2cc(I)c(O)c(I)c2)c(I)c1)C(=O)O (stereo not drawn) [PRIAB1, 2-[(tert-butoxycarbonyl)amino]-3-[4-(4-hydroxy-3,5-diiodophenoxy)-3,5-diiodophenyl]propanoic acid]
melting point: 212 °C

CCNC(Cc1cc(I)c(Oc2cc(I)c(O)c(I)c2)c(I)c1)C(=O)OCC (stereo not drawn) [PRIAB20, ethyl-2-(ethylamino)-3-[4-(4-hydroxy-3,5-diiodophenoxy)-3,5-diiodophenyl]propanoate]
solubility (Solubility): 1000 µM (≈ 833 µg/mL)

CCO [ethanol]
IC50 (NG108-15 cells): 5 to 10 mM

B1: Vitronectin: extracellular matrix protein used as migration gradient (protein, UniProt P04004 20-478, looked up)
Vitronectin: DQESCKGRCTEGFNVDKKCQCDELCSYYQSCCTDYTAECKPQVTRGDVFTMPEDEYTVYDDGEEKNNATVHEQVGGPSLTSDLQAQSKGNPEQTPVLKPEEEAPAPEVGASKPEGIDSRPETLHPGRPQPPAEEELCSGKPFDAFTDLKNGSLFAFRGQYCYELDEKAVRPGYPKLIRDVWGIEGPIDAAFTRINCQGKTYLFKGSQYWRFEDGVLDPDYPRNISDGFDGIPDNVDAALALPAHSYSGRERVYFFKGKQYWEYQFQHQPSQEECEGSSLSAVFEHFAMMQRDSWEDIFELLFWGRTSAGTRQPQFISRDWHGVPGQVDAAMAGRIYISGMAPRPSLAKKQRFRHRNRKGYRSQRGHSRGRNQNSRRPSRATWLSLFSSEESNLGANNYDDYRMDWLVPATCEPIQSVFFFSGDKYYRVNLRTRRVDTVDPPYPRSIAQYWLGCPAPGHL
Mean EC Migration (Fluorescence Units) + SD [3]: 6,116 ± 185 Fluorescence Units
